Measured values: ChEMBL document CHEMBL4340509, “Synthesis and evaluation of novel GSK-3β inhibitors as multifunctional agents against Alzheimer's disease” (Eur J Med Chem, 2019)
Activity calls are given as the source filed them. No cut-off for these calls is given here.

Experiments:
[1] = Potency index, ratio of trolox IC50 to test compound IC50 for ABTS radical scavenging activity; format: functional
[2] = tested on: SH-SY5Y; assay: Neuroprotective activity against Cu2+-mediated amyloid beta (1 to 42) (unknown origin)-induced cytotoxicity in human SH-SY5Y cells assessed as cell viability at 2 uM measured after 24 hrs by MTT assay (reference value: 71%); format: functional; conditions: read-out: Activity
[3] = target: T1, Glycogen synthase kinase-3 beta (Homo sapiens, UniProt P49841); assay: Inhibition of GSK-3beta (unknown origin) using FAM-labeled peptide as substrate preincubated for 10 mins followed by substrate addition by caliper assay
Target sequence in this assay (P49841 whole entry): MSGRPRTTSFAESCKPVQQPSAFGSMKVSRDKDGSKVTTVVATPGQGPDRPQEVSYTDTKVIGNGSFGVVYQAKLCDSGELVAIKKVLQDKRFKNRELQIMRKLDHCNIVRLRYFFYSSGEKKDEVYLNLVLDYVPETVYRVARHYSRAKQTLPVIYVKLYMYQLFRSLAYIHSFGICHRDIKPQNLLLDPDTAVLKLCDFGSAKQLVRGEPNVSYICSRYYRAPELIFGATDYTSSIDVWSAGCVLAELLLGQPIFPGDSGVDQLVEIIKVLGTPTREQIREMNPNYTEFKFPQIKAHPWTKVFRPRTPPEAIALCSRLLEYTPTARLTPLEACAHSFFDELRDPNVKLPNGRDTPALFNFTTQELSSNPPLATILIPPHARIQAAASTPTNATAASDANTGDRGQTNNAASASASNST

[4] = Metal chelating activity assessed as inhibition of Cu(II)/ascorbate-induced ROS production by measuring fluorescence intensity at 100 uM measured at 20 secs interval for 1000 secs by fluorescence assay (reference value: 10 to 52)
[5] = tested on: PC-12; assay: Neuroprotective activity against H2O2-induced oxidative damage in rat PC12 cells assessed as cell viability at 10 uM measured after 24 hrs by MTT assay relative to control; format: functional; conditions: PC-12, 24 h, read-out: Activity
[6] = Metal chelating activity assessed as compound-Cu2+ complex formation by measuring blue shift in maximum absorption at 20 uM in presence of CuCl2 after 30 mins by UV-visible spectrophotometric analysis (reference value: 248 nanometer)
[7] = Disaggregation of Cu2+ induced human HFIP-pretreated amyloid beta (1 to 42) preformed fibrils at 40 uM measured after 24 hrs by ThT-based fluorescence assay relative to control
[8] = Inhibition of Cu2+-induced HFIP pretreated human amyloid beta (1 to 42) aggregation at 40 uM measured after 24 hrs by ThT-based fluorescence assay relative to control
[9] = Potency index, ratio of test compound effect to clioquinol effect for disaggregation of Cu2+ induced human HFIP-pretreated amyloid beta (1 to 42) preformed fibrils
[10] = Antioxidant activity assessed as ABTS radical scavenging activity incubated for 6 mins; format: functional
[11] = Metal chelating activity assessed as compound-Zn2+ complex formation at 20 uM in presence of ZnCl2 after 30 mins by UV-visible spectrophotometric analysis
[12] = tested on: PC-12; assay: Cytotoxicity against rat PC12 cells measured after 24 hrs by MTT assay; format: cell-based; conditions: PC-12, 24 h
[13] = Metal chelating activity assessed as compound-Fe2+ complex formation at 20 uM in the presence of FeSO4 after 30 mins by UV-visible spectrophotometric analysis
[14] = Metal chelating activity assessed as compound-Mg2+ complex formation at 20 uM in the presence of MgCl2 after 30 mins by UV-visible spectrophotometric analysis
[15] = target: Amyloid-beta precursor protein (Homo sapiens) (UniProt P05067); assay: Disaggregation of HFIP-pretreated human amyloid beta (1 to 42) preformed fibrils at 40 uM after 24 hrs by ThT-based fluorometric method relative to control
Chain of Amyloid-beta precursor protein (Homo sapiens) (P05067 whole entry): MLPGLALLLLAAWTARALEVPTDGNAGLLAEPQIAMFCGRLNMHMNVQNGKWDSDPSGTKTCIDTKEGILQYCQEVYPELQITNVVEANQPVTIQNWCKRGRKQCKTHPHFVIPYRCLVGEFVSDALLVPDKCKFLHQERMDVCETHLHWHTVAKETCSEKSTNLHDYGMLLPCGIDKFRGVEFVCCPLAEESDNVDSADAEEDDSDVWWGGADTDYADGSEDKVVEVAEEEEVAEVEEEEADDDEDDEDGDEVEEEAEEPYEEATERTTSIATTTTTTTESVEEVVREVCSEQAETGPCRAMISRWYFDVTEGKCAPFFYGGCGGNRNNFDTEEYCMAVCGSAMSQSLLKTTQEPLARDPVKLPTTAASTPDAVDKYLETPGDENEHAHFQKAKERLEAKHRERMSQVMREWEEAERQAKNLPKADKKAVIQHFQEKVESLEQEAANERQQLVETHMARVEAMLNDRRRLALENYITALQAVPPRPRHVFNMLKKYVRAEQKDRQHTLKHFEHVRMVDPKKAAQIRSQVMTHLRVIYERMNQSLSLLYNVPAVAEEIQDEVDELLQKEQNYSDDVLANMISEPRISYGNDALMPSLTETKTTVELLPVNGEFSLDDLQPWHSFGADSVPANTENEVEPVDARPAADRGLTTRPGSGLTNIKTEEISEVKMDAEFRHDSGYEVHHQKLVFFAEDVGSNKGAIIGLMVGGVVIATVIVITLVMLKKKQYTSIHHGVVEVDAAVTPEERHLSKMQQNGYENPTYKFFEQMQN

[16] = target: Amyloid-beta precursor protein (Homo sapiens) (UniProt P05067); assay: Inhibition of human HFIP-pretreated amyloid beta (1 to 42) self aggregation at 40 uM after 24 hrs by ThT-based fluorometric method relative to control
[17] = tested on: SH-SY5Y; assay: Cytotoxicity against human SH-SY5Y cells measured after 24 hrs by MTT assay; format: cell-based
[18] = target: T1, Glycogen synthase kinase-3 beta; assay: Inhibition of GSK3bbeta in human SH-SY5Y cells assessed as reduction in human amyloid beta (25 to 35) peptide-induced tau hyperphosphorylation at Ser396 residue at 25 uM preincubated for 1 hr followed by amyloid beta-stimulation and measured after 6 hrs by Western blot analysis relative to control; format: cell-based
Target sequence in this assay (P49841 whole entry, looked up): as the sequence (P49841 whole entry) above

[19] = Metal chelating activity assessed as compound-Al3+ complex formation by measuring blue shift in maximum absorption at 20 uM in the presence of AlCl3 after 30 mins by UV-visible spectrophotometric analysis (reference value: 248 to 407 nanometer)
[20] = tested on: SH-SY5Y; assay: Neuroprotective activity against H2O2-induced oxidative damage in human SH-SY5Y cells assessed as increase in cell viability measured after 24 hrs by MTT assay; format: functional, cell-based
[21] = target: T1, Glycogen synthase kinase-3 beta; assay: Inhibition of GSK3bbeta in human SH-SY5Y cells assessed as reduction in human amyloid beta (25 to 35) peptide-induced tau hyperphosphorylation at Ser396 residue preincubated for 1 hr followed by amyloid beta-stimulation and measured after 6 hrs by Western blot analysis; format: cell-based
Target sequence in this assay (P49841 whole entry, looked up): as the sequence (P49841 whole entry) above

[22] = Metal chelating activity assessed as K+-compound complex formation at 20 uM in the presence of KCl after 30 mins by UV-vis spectrophotometric analysis
[23] = tested on: SH-SY5Y; assay: Neuroprotective activity against amyloid beta (1 to 42) (unknown origin)-induced cytotoxicity in SH-SY5Y cells assessed as cell viability at 2 uM measured after 24 hrs by MTT assay (reference value: 78%); format: functional; conditions: Homo sapiens
[24] = Metal chelating activity assessed as Na+-compound complex formation at 20 uM in the presence of NaCl after 30 mins by UV-vis spectrophotometric analysis
[25] = tested on: SH-SY5Y; assay: Cytotoxicity against human SH-SY5Y cells at 2 uM in the presence of CuCl2 measured after 24 hrs by MTT assay; format: cell-based
[26] = Metal chelating activity assessed as compound-Ca2+ complex formation at 20 uM in the presence of CaCl2 after 30 mins by UV-visible spectrophotometric analysis
[27] = tested on: SH-SY5Y; assay: Neuroprotective activity against H2O2-induced oxidative damage in human SH-SY5Y cells assessed as cell viability at 10 uM measured after 24 hrs by MTT assay relative to control; format: functional; conditions: read-out: Activity

## Nc1ncc(-c2ccccc2)cc1/N=C/c1ccnc(NC(=O)C2CC2)c1
[1]
  Ratio IC50: 2 to 4
[2]
  viability at 2 µM: 93%
[3]
  IC50: 0.049 µM
[4]
  Flu intensity: 53 to 68
[5]
  viability at 10 µM: 71.8%
[6]
  Activity: 244 nm
[7]
  Activity: 66.1%
[8]
  inhibition: 63%
[9]
  Ratio: 2
[10]
  IC50: 7.3 µM
[11]
  Activity: inactive
[12]
  IC50: 83.2 µM
[13]
  Activity: inactive
[14]
  Activity: inactive
[15]
  Activity: inactive
[16]
  inhibition: inactive
[17]
  IC50: 158 µM
[18]
  inhibition: < 50%
[19]
  Activity: 242 to 339 nm
[20]
  Activity: Dose-dependent effect
[21]
  inhibition: Dose-dependent effect
[22]
  Activity: inactive
[23]
  Activity: inactive
[24]
  Activity: inactive
[25]
  Activity: Non-Toxic
[26]
  Activity: inactive
[27]
  viability at 10 µM: 92.7%
